This note sets out measurements from paper PMC5877509, “Cys Site-Directed Mutagenesis of the Human SLC1A5 (ASCT2) Transporter: Structure/Function Relationships and Crucial Role of Cys467 for Redox Sensing and Glutamine Transport” (International Journal of Molecular Sciences, 2018).

Assay type in all cases: biochemical
Assay [1] has as its target T1, hASCT2 (Homo sapiens, UniProt Q15758).
T1 construct: gene SLC1A5; recombinant hASCT2-His6, purified from P. pastoris, in proteoliposomes
T1 sequence (Q15758 1-541): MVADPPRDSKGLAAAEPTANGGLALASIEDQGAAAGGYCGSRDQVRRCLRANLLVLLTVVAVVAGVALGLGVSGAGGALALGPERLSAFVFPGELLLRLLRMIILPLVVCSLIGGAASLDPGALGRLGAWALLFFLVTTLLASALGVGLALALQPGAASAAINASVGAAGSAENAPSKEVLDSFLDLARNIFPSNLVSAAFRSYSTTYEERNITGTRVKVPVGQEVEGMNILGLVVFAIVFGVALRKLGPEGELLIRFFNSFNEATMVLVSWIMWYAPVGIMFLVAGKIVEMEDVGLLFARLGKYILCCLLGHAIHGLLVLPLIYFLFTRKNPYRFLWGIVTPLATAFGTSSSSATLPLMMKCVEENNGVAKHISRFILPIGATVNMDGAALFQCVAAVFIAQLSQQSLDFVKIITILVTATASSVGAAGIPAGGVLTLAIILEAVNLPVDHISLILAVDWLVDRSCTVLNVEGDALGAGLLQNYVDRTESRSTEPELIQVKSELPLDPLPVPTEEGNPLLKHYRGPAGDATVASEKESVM
Description: [3H]Gln transport inhibition in proteoliposomes at […].

Assay [2] deals with T2, hASCT2 (Homo sapiens, UniProt Q15758, C467A).
T2 construct: gene SLC1A5; recombinant hASCT2-His6, purified from P. pastoris, in proteoliposomes
T2 sequence (Q15758 1-541 C467A): T1 sequence (Q15758 1-541) with C467A
Put plainly: [3H]Gln transport inhibition in proteoliposomes, dose-response.

Assay [3] deals with T2, hASCT2. Description: [3H]Gln transport kinetics (external Km) in proteoliposomes.
In assay [4] the target is T1, hASCT2. The assay is described as above.
Assay [5] has as its target T1, hASCT2. Put plainly: [3H]Gln transport inhibition in proteoliposomes, dose-response.
Assay [6] deals with T1, hASCT2. Description: [3H]Gln transport inhibition in proteoliposomes at […]. Particulars: read-out: % inhibition at 1 mM.

Substitutions are numbered along the chain they refer to.

For the compound `N[C@@H](CS)C(=O)O` [Cys], the “[3H]Gln transport inhibition in proteoliposomes at 1 mM” value in assay [1] was “While Cys strongly inhibited the transport; in this case, inhibition occurred by a mechanism not involving S-S/SH inter-conversion”. In assay [2], this compound showed an IC50 of 16.6 ± 1.62 µM. On to `NC(=O)CC[C@H](N)C(=O)O` [Gln], for which the Km in assay [3] came out at 202 ± 33 µM; in assay [4], 35 ± 10 µM.

In assay [5], `CS(=O)(=O)SCCS(=O)(=O)O` [MTSES, Sodium (2-sulfonatoethyl)methane thiosulfonate] returned an IC50 of 129 ± 21 µM.

As for `CCN1C(=O)C=CC1=O` [NEM], the inhibition at 1000 µM in assay [6] is ~50%.

The IC50 is the midpoint of a concentration-inhibition curve. Read a high IC50 as weaker potency. The term Km denotes the substrate concentration at which the rate is half of its maximum. Usually inhibition stands for how much of the control response was suppressed.
